This is an account of results in PMC11020070, “Discovery of Protease-Activated Receptor 4 (PAR4)-Tethered Ligand Antagonists Using Ultralarge Virtual Screening” (ACS Pharmacology & Translational Science, 2024).

pIC50: −log10 of the molar value.

Broadly, the CLint scaled is a measure of how fast metabolising enzymes remove a compound, apart from limits set by blood flow. A high value points to faster metabolism. One may read the pIC50 as the negative decadic logarithm of the IC50, by convention in mol/L.

One data set deals with T1, PAR4 (Homo sapiens, UniProt Q96RI0).
T1 sequence (Q96RI0 18-385): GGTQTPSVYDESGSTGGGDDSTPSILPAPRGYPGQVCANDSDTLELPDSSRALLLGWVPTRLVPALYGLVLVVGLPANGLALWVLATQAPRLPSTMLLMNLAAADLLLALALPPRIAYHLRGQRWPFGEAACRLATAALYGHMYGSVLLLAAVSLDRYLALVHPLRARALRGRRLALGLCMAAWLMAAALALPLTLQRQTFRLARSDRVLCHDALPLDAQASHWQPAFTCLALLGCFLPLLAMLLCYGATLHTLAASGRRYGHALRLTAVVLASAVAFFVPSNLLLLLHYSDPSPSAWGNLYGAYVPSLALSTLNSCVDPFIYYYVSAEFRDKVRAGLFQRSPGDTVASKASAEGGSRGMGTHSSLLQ
Description: PAR4 component of α-thrombin activation (α-thrombin + vorapaxar) in human platelets. The following applies: for pIC50: α-thrombin + vorapaxar, read-out: PAR4 IC50 (Figure 6D). Details: endogenous in cells; host or cells: platelets. The class given is cell-based. As to the method: Figure 5 (A) Off-target controls: % of vehicle control for γ-thrombin (100 nM), PAR4 component of α-thrombin (5 nM α-thrombin +1 μM vorapaxar), PAR4 agonist peptide 200 μM AYPGKF, 200 μM PAR1 agonist peptide SFLLRN, and GPVI agonist convulxin 3.16 nM.
Figure 6 (A) Distribution of IC50 values for the inhibition of human PAR4 vs mouse PAR4. Red indicates the 2 compounds highlighted in panels (B–D). (B) Structures of exemplar compounds. (C) Concentration–response curves for human vs mouse PAR4. (D) Concentration–response curves for the inhibition of pharmacologically defined α-thrombin components for PAR1 (α-thrombin + BMS-3) vs PAR4 (α-thrombin + vorapaxar).
α-thrombin activates both PAR1 and PAR4, and the individual PAR1 or PAR4 component can be isolated pharmacologically. […] With 20 substitutions between PAR1 and PAR4 within 5 Å of the predicted 31 binding site, the basis for these selectivity differences is not known (Figure S4). As we continue to probe for a selective PAR4 antagonist, mutagenesis of individual residues will be conducted.
Compounds were screened for inhibition activity against human PAR4 using 100 nM γ-thrombin or 200 μM PAR4-AP in a single-point assay (10 μM test compound). Dose–response curves were conducted for active compounds. Active compounds were also assessed at a single concentration of 10 μM against other agonists, including the PAR4 component of α-thrombin (5 nM α-thrombin +1 μM vorapaxar), the PAR1 agonist peptide (20 μM SFFLRN), and the GPVI receptor agonist convulxin (3 nM).

Data set [1] is described as follows: Microsomal stability, human liver microsomes. The class given is in vitro ADME. Conditions: for CLint scaled at 1 µM: pH 7.4, human liver microsomes, in vitro, reaction started with NADPH; for human CLhep: predicted hepatic clearance from human liver microsomes. As to the method: The metabolic stability of each compound was investigated in mouse and human hepatic microsomes using substrate depletion methodology (% parent compound remaining). Prior to use, microsomes were removed from the freezer and allowed to thaw in a 37 °C water bath before being placed on wet ice.
In separate 96-well plates for each time point, a mixture of 0.1 M potassium phosphate-buffered (pH 7.4), 3 mM MgCl2, and 2.5 mg/mL microsomes were prewarmed at 37 °C for 5 min. Following the preincubation, a 1 μM test compound and 1 mM NADPH (for 3, 7, 15, 25, or 45 min time points) or buffer (for 0 min time point) were added to initiate the reaction. Under standard conditions, reactions were initiated with the addition of NADPH. To delineate the contribution of esterases, some experiments were initiated by the addition of substrate in the presence or absence of NADPH. Plates were incubated at 37 °C under ambient oxygenation. At the respective times, each plate’s reaction was precipitated by the addition of 2 volumes of ice-cold acetonitrile containing an internal standard (carbamazepine, 50 nM). The plates were centrifuged at 4000 rcf (4 °C) for 5 min. The resulting supernatants were transferred and diluted 1:1 (supernatant:water) into new 96-well plates in preparation for LC/MS/MS analysis. Each compound was assayed in triplicate within the same 96-well plate. The in vitro half-life (t1/2, min, eq 1), intrinsic clearance (CLint, mL/min/kg, eq 2), and subsequent predicted hepatic clearance (CLhep, mL/min/kg, eq 3) were determined employing the following equations [drawing 1] 1 [drawing 2] 2 [drawing 3] 3 The estimated percent contribution to metabolism was calculated from the percent substrate lost plots generated from metabolic incubations initiated with the addition of a test compound. Calculations compared the area under the curve (AUC) from conditions in the presence and absence of NADPH and buffer-only (control) conditions (eqs 4 and 5). AUC was calculated by using the trapezoidal method [drawing 4] 4 [drawing 5] 5
The analysis of in vitro samples from microsomal stability or plasma protein binding experiments was determined by employing LCMS/MS with an electrospray ionization-enabled 5500 Sciex instrument (Sciex, Foster City, CA) that was coupled to Agilent HPLC pumps and an autosampler (Agilent Technologies, Santa Clara, CA). Analytes were separated by gradient elution using a Kinetex C18 column (2.1 mm × 50 mm, 5 μm; Phenomenex, Torrance, CA) warmed to 35 °C. Mobile phase A was 0.5% formic acid in water, and mobile phase B was 0.5% formic acid in acetonitrile. […] The total run time was 2.8 min, and the HPLC flow rate was 0.5 mL/min. Mass spectral analyses were performed using multiple reaction monitoring, with transitions and voltages specific for each analyte using a Turbo Ion Spray source (source temperature of 500 °C) in positive ionization mode (5.0 kV spray voltage). Multiple reaction monitoring transitions were the following: 6110B8 (m/z 345.02 → 149.03, DP = 31; EP = 10; CE = 37 and CXP = 14), 6G3R (m/z 421.06 → 225.12, DP = 91; EP = 10; CE = 39 and CXP = 12), 5D22 (m/z 309.068 → 211.16, DP = 131; EP = 10; CE = 29 and CXP = 12), and carbamazepine (m/z 237 → 194, DP = 96; EP = 10; CE = 25 and CXP = 8). Data were analyzed using OS Sciex Analyst 1.5.1 (SCIEX, Framingham, MA), Graphpad Prism 10.1.0 (GraphPad Software, Boston, Massachusetts), and Microsoft Excel version 2310 (Microsoft, Redmond, WA).

As for `Cc1nc(NC(=O)c2cc(-c3ccccc3)n(-c3ccccc3)n2)n[nH]1` [Compound 7], the “inhibition of PAR4 component of α-thrombin activation” value at PAR4 (10 μM compound, 5 nM α-thrombin + 1 μM vorapaxar) is “did inhibit”.
With `Cc1cc(C(=O)Nc2n[nH]c(OC(F)F)n2)nn1-c1ccccc1` [Compound 9], in data set [1], the intrinsic clearance (CLint scaled) at 1 µM worked out at 407 mL/min/kg and the “human CLhep” value is recorded as 20 mL/min/kg.
Take `Cn1nc(C(=O)Nc2n[nH]c(-c3c(F)cccc3F)n2)cc1C1CC1` [Compound 12]: in data set [1], the CLint scaled at 1 µM is 478 mL/min/kg and the “human CLhep” value is 20.1 mL/min/kg. For the same compound, the pIC50 at PAR4 is 6.83.
On to `O=C(Nc1nc[nH]n1)c1nn(-c2ccccc2)c2c1CCC2` [Compound 17], for which, in data set [1], the CLint scaled at 1 µM was found to be 49.6 mL/min/kg and the “human CLhep” value was 14.8 mL/min/kg.
Turning to `O=C(Nc1n[nH]c(-c2ccc(F)cc2F)n1)c1nn(-c2ccccc2)c2c1CCCC2` [Compound 31], in data set [1], the intrinsic clearance (CLint scaled) at 1 µM worked out at 459 mL/min/kg and the “human CLhep” value is reported as 20.1 mL/min/kg. On PAR4, the pIC50 was 6.79.
In the case of `COc1cccc(-c2nc(NC(=O)c3nn(-c4ccccc4)c4c3CCCC4)n[nH]2)c1` [Compound 32], in data set [1], the CLint scaled at 1 µM was found to be 285 mL/min/kg and the “human CLhep” value is reported as 19.6 mL/min/kg.
